The test system of one assay is pYAP (Ser 127). Put plainly: Western blotting of YAP serine 127 phosphorylation, IMR-90 cells. Format: cell-based, human. The settings on record: IMR-90, DHX 10 μM, 2 hours. From the text:
Scale bar represents 100 μm. […] Scale bar represents 100 μm.
For orientation: In western blotting, separated proteins are transferred to a membrane and probed.

For assay [1], the system named is Collagen I and Fibronectin. Put plainly: Immuno-ECM: TGFβ-stimulated accumulation of collagen I and fibronectin. Format: cell-based, human. The settings on record: IPF patient-derived fibroblasts, TGFβ 48 hours then DHX 24 hours. How it is done:
Immuno-ECM: Adapting from previously published methods, IPF patient-derived fibroblasts were plated to confluence in clear-bottom 96-well plates. After cells attached, the medium was swapped for EMEM containing 0.1% FBS+2 ng/mL TGF-β. After 48 hours the indicated concentration of DHX or DMSO control was added to each well and incubated for 24 hours. WST-1 viability reagent was added to each well (Sigma-Aldrich) and measured on a Flexstation 3 (Molecular Devices) plate reader. Cells were then fixed in 3.7% formalin (Sigma-Aldrich), and permeabilized in 0.25% Triton X-100 (Sigma-Aldrich). Wells were washed with tris-buffered saline (TBS) and blocked with Li-Cor Odyssey Blocking Buffer for 60 minutes before overnight incubation in a polyclonal rabbit antibody for fibronectin (Sigma sc-9068) or collagen I (Novus NB600-408) diluted 1:200 in blocking buffer. Wells were washed with TBS-Tween before 45 minute incubation with IR-dye-conjugated secondary antibody (Li-Cor #926-32211) diluted 1:400. Plates were imaged via a Li-Cor OdysseyXL system with quantification performed via densitometry. Data are expressed as IR intensity relative to WST-1 signal absorbance in order to account for any potential compound toxicity.

The test system of another assay is TAZ4SA. The assay is described as follows: Gene expression and ECM deposition in NIH-3T3 cells expressing constitutively active mutant TAZ (TAZ4SA). The class given is cell-based, mouse. The settings on record: doxycycline-induced TAZ4SA NIH-3T3. How it is done:
FIGS. 8A-8B DHX inhibition of pro-fibrotic gene expression and matrix deposition requires inhibition of YAP/TAZ. […] TAZ4SA expression was induced with 100 ng/mL doxycycline for 72 hours prior to treatment with 10 μM or the indicated concentration of dihydrexidine. For gene expression experiments efficacy of DHX in NIH-3T3 cells was validated with by DHX (10 μM) effect on TGFβ (24 hour, 2 ng/mL) induced gene expression. N=2 for all.
Cell culture: Cells were all maintained in EMEM (ATCC) containing 10% FBS, unless otherwise noted. IMR-90 embryonic lung fibroblasts and NIH-3T3 mouse fibroblasts were purchased from ATCC. Doxycycline-inducible Tet-On NIH3T3 expressing TAZ4SA or control empty vector were described previously. Normal Human Alveolar Epithelial Cells (NHAEpCs), Normal Human Microvascular Endothelial Cells (NHMVECs), Normal Human Lung Fibroblasts (NHLFs), and Human Dermal Fibroblasts (HDFs) were purchased from Lonza and were cultured in the proprietary media per Lonza's recommendation. Human Adult Cardiac Fibroblasts (HACFs) and Hepatic Stellate Cells (HSCs) were purchased from ScienCell and were cultured in the proprietary media per ScienCell's recommendation. Hepatocytes were purchased from Samsara and were cultured in the proprietary media per Samsara's recommendation. […]

The subject of assay [2] is IMR-90 cells and IPF Patient-Derived Lung fibroblasts. Put plainly: Proliferation and apoptosis-factor expression of lung fibroblasts. Format: cell-based, human. The method, then:
IPF fibroblast and Normal lung fibroblast co-culture proliferation. Cell are pre-labelled with fluorescent dyes (red and green) and then co-cultured at a Ratio of 1:1 in 96 well plates. Cell counts are determined every 24 hours and plotted as a ratio of IPF/HLF cells. In the control wells the IPF cells outgrow and take over the well. N=2.
Proliferation of lung fibroblasts (IMR-90 cells and IPF Patient-Derived Lung fibroblasts) measured for 4 days in the presence of GPCR agonists ET-1 (100 nM) and LPA (10 μM) (32A, 32B) or growth factors TGFβ (2 ng/mL) and CTGF (100 ng/mL) (32C, 32D)+/−10M DHX. Cells were fixed and counted with DAPI at the end of each day. N=3 technical triplicates. RNA Expression of pro-apoptotic factor BIM (32E, 32F) and anti-apoptotic factor BCL2 (32G, 32H) was assessed following 24 treatment with DHX (10 μM). N=4.

Turning to `Oc1cc2c(cc1O)[C@H]1c3ccccc3CN[C@@H]1CC2` (racemic) [Dihydrexidine, dihydrexidine], the “YAP serine 127 phosphorylation” value in the assay with pYAP (Ser 127) is recorded as “promoted YAP serine 127 phosphorylation”. Moreover, the “TGFβ-stimulated accumulation of collagen I and fibronectin” value in assay [1] is on record as “dose-dependently reversed”. Further, the “profibrotic gene expression and extracellular matrix accumulation in TAZ4SA cells” value in the assay with TAZ4SA is “had no effect on profibrotic gene expression or extracellular matrix accumulation”. Also, the “RNA expression of pro-apoptotic BIM and anti-apoptotic BCL2” value in assay [2] (24 treatment with DHX (10 μM)) is on record as “primes lung fibroblasts for apoptosis”. For the same molecule, in assay [2] (4 days, with ET-1, LPA, TGFβ or CTGF +/−10M DHX), the “proliferation of lung fibroblasts” value is reported as “blocks proliferation”.

The record behind these values is patent US20240252463A1, “METHODS OF TREATING FIBROTIC PATHOLOGIES” (Mayo Foundation for Medical Education and Research, priority 2018, published 2024).
